Laboratory results from PMC11530130, “Peripherally restricted PICK1 inhibitor mPD5 ameliorates pain behaviors in murine inflammatory and neuropathic pain models” (JCI Insight, 2024).
Values joined by “and” are separate entries in the source; they are usually repeats but may differ in a detail not shown here. Equal entries are not always repeated.

Assays:
[1] = test system: mice, spared nerve injury (SNI) model; test: Ultrasonic vocalisation (USV) recordings at 37 kHz, SNI mice; type: in vivo, mouse; conditions: for Ultrasonic vocalisations, individual animals (Fig 5E): SNI mice
Experimental: Time spent in each compartment was […]
compartment was used to define three even groups.
Conditioning (DAY 2-9): Mice were injected s.c. with PBS, morphine (10 mg/kg) (RH Pharmacy, Denmark, Vnr. 475249), or 10 μmol/kg mPD5 immediately before being placed in and confined to the appropriate compartment for 40 min. Drug was paired to the least-preferred compartment, conditioning was alternated so that mice were never placed in the same compartment two days in a row, and the day on which they were exposed to drug was […]
Preference test (DAY 10): Mice were allowed to freely move between the two compartments […]
Ultrasonic vocalisation (USV) recordings.
Mice were left in Med-Associates square behavioral chambers (27 cm x 27 cm) to freely roam around for 60 min, four days in a row. […] On day three, both control and SNI mice were placed directly in the chambers and recorded for 60 min. On day four, control mice were injected s.c. with PBS, and SNI mice were injected with either 10 μmol/kg mPD5 or PBS immediately before being placed in the chambers and recorded for 60 min. The recordings were analyzed using the Avisoft SASLab Pro software (Version 5.02.07, Avisoft Bioacoustics) as described in (12), applying a fast fourier transformation (FFT) (1024 FTT length, 100% frame size, Blackman window, and 87.5% time window overlap). […]
To compare pain-relevant vocalizations, only short and constant USVs of 37 kHz were counted […]
Mice were pretreated with 10 μmol/kg mPD5, 10 mg/kg morphine (RH Pharmacy, Denmark, Vnr. 475249), or PBS 45 min before habituation to observation container (glass cylinder surrounded by mirrors on 2 sides) for 15 min. […] Mice were recorded for three min after i.pl. injection with capsaicin and euthanized the same day. Mice were scored manually for the amount of time spent paw licking within three min after capsaicin administration. […]

[2] = test system: mice, spared nerve injury (SNI) model; test: SNI model 18 weeks after surgery, von Frey, sustained s.c. administration; type: in vivo, mouse; parameters: von Frey threshold, Fig 7C, individual mice: unit not given here; conditions: for duration of effect on mechanical hypersensitivity: SNI 18 weeks after surgery
Experimental: Repeated and sustained administration of mPD5 in the SNI model. […]
For the first experiment with sustained administration of mPD5 (Figure 7C), the mice underwent a baseline von Frey reading as described in the “Mechanically-evoked pain (von Frey).”-section and SNI surgery as described in “Induction of neuropathic pain (SNI model).”-section. Approximately 18 weeks (125 days) after SNI surgery, hyperalgesia was confirmed with von Frey. On the same day, mice were injected s.c. with 10 μmol/kg mPD5 and evoked pain was tested again at 1 hour after injection. Then, mice were injected s.c. with either 2+2+2 μmol/kg mPD5 (group A) or PBS (group B) once an hour for 3 hours. At 4,5 hours after the 10 μmol/kg mPD5 injection paw withdrawal threshold was measured again followed by a s.c. injection of 2 μmol/kg mPD5 in all animals. The PWT was measured again at 6 hours +7 hours + 8 hours + 9 hours + 10 hours + 11 hours + 22 hours + 23 hours + 25 hours + 27 hours + 49 hours + 121 hours after the initial 10 μmol/kg mPD5 injection performed on day 125. […]

Structure (SMILES): CCCCCCCCCCCCCC(=O)N(CCOCCOCCC(=O)N[C@@H](Cc1c[nH]cn1)C(=O)N[C@@H](Cc1c[nH]c2ccccc12)C(=O)N[C@@H](CC(C)C)C(=O)N[C@@H](CCCCN)C(=O)N[C@H](C(=O)O)C(C)C)CCOCCOCCC(=O)N[C@@H](Cc1c[nH]cn1)C(=O)N[C@@H](Cc1c[nH]c2ccccc12)C(=O)N[C@@H](CC(C)C)C(=O)N[C@@H](CCCCN)C(=O)N[C@H](C(=O)O)C(C)C [mPD5, myristoyl-NPEG4-(HWLKV)2]
- Ultrasonic vocalisations, individual animals (Fig 5E) ([1]; Baseline): 4 and 10 and 8 and 9 and 7 and 5
- Ultrasonic vocalisations, individual animals (Fig 5E) ([1]; min 60-120 post injection): 3 and 8 and 1 and 7
- effect on SNI-induced increase of vocalizations at 37 kHz ([1]; SNI, female mice, s.c. 10 μmol/kg, to the level of the naive mice): fully reversed
- von Frey threshold, contralateral paw, Fig 7C, individual mice ([2]; A-contra, time 9 post første inj og time 4 post sidste inj): 1.4 (3×) and 1 (5×)
- von Frey threshold, contralateral paw, Fig 7C, individual mice ([2]; A-contra, time 10 post første inj og time 5 post sidste inj): 1 (4×) and 1.4 (3×) and 0.6
- von Frey threshold, contralateral paw, Fig 7C, individual mice ([2]; A-contra, time 11 post første inj og time 6 post sidste inj): 1.4 (2×) and 2 (2×) and 1 (4×)
- von Frey threshold, contralateral paw, Fig 7C, individual mice ([2]; A-contra, time 22 post første inj og time 17 post sidste inj): 1.4 (4×) and 0.6 and 1 (3×)
- von Frey threshold, contralateral paw, Fig 7C, individual mice ([2]; A-contra, time 23 post første inj og time 18 post sidste inj): 1.4 (6×) and 0.6 and 1
- von Frey threshold, contralateral paw, Fig 7C, individual mice ([2]; A-contra, time 25 post første inj og time 20 post sidste inj): 1 (7×) and 1.4
- von Frey threshold, contralateral paw, Fig 7C, individual mice ([2]; A-contra, time 27 post første inj og time 22 post sidste inj): 1.4 (3×) and 1
- von Frey threshold, contralateral paw, Fig 7C, individual mice ([2]; B-contra, time 9 post første inj og time 4 post sidste inj): 1 (4×) and 1.4 (3×) and 2
- von Frey threshold, contralateral paw, Fig 7C, individual mice ([2]; B-contra, time 10 post første inj og time 5 post sidste inj): 1.4 (4×) and 2 (2×) and 1 (2×)
- von Frey threshold, contralateral paw, Fig 7C, individual mice ([2]; B-contra, time 11 post første inj og time 6 post sidste inj): 1 (2×) and 2 (2×) and 1.4 (4×)
- von Frey threshold, contralateral paw, Fig 7C, individual mice ([2]; B-contra, time 22 post første inj og time 17 post sidste inj): 1.4 (3×) and 1 (2×) and 2 (3×)
- von Frey threshold, contralateral paw, Fig 7C, individual mice ([2]; B-contra, time 23 post første inj og time 18 post sidste inj): 1 (2×) and 2 (3×) and 1.4 (2×) and 0.6
- von Frey threshold, contralateral paw, Fig 7C, individual mice ([2]; B-contra, time 25 post første inj og time 20 post sidste inj): 1.4 (5×) and 1 and 2 and 0.6
- duration of effect on mechanical hypersensitivity ([2]; 10 + 2 + 2 + 2 + 2 μmol/kg s.c., 1 hour between injections (Group A), from first injection): 25 h
- duration of effect on mechanical hypersensitivity ([2]; without consecutive administration (reference, 10 + 0 + 0 + 0 + 2 μmol/kg)): 1 h
- von Frey threshold, Fig 7C, individual mice ([2]; group A, time 9 post første inj og time 4 post sidste inj): 2 and 1.4 and 0.6 and 0.4 (2×) and 1 (3×)
- von Frey threshold, Fig 7C, individual mice ([2]; group A, time 10 post første inj og time 5 post sidste inj): 1.4 (2×) and 2 and 0.4 (3×) and 0.6 and 1
- von Frey threshold, Fig 7C, individual mice ([2]; group A, time 11 post første inj og time 6 post sidste inj): 1.4 and 1 (3×) and 0.16 and 0.4 and 0.6 (2×)
- von Frey threshold, Fig 7C, individual mice ([2]; group A, time 22 post første inj og time 17 post sidste inj): 0.6 (2×) and 1 (2×) and 0.16 (2×) and 0.4 and 1.4
- von Frey threshold, Fig 7C, individual mice ([2]; group A, time 23 post første inj og time 18 post sidste inj): 1.4 and 0.6 (2×) and 0.16 and 0.07 (2×) and 1 and 0.4
- von Frey threshold, Fig 7C, individual mice ([2]; group A, time 25 post første inj og time 20 post sidste inj): 0.16 (2×) and 2 and 0.6 (3×) and 0.4 and 1.4
- von Frey threshold, Fig 7C, individual mice ([2]; group A, time 27 post første inj og time 22 post sidste inj): 0.4
- von Frey threshold, Fig 7C, individual mice ([2]; group B, time 9 post første inj og time 4 post sidste inj): 1 and 0.4 (3×) and 0.07 (2×) and 0.6 and 0.16
- von Frey threshold, Fig 7C, individual mice ([2]; group B, time 10 post første inj og time 5 post sidste inj): 0.4 (3×) and 0.16 (2×) and 0.07 (3×)
- von Frey threshold, Fig 7C, individual mice ([2]; group B, time 11 post første inj og time 6 post sidste inj): 0.4 (2×) and 0.16 (3×) and 0.07 (3×)
- von Frey threshold, Fig 7C, individual mice ([2]; group B, time 22 post første inj og time 17 post sidste inj): 0.16 (5×) and 0.07 (3×)
- von Frey threshold, Fig 7C, individual mice ([2]; group B, time 23 post første inj og time 18 post sidste inj): 0.16 (3×) and 0.4 (2×) and 0.07 (3×)
- von Frey threshold, Fig 7C, individual mice ([2]; group B, time 25 post første inj og time 20 post sidste inj): 0.6 and 0.16 (4×) and 0.4 and 0.07 (2×)
- von Frey threshold, Fig 7C, individual mice ([2]; group B, time 27 post første inj og time 22 post sidste inj): 0.6 and 0.07 and 0.16
